Measurements from EP4818312A2.

Conditions: from C=C[C@@H]1OC(c2ccc(OC)cc2)O[C@]1(C)CC[C@H](CC(=O)O[C@H](/C(C)=C/I)[C@@H](C)C=C)O[Si](C)(C)C(C)(C)C; rcm bond; Hoveyda-Grubbs 2nd generation; toluene; 6.52 mM; 110.0 °C; 5.0 h

Q: For `COc1ccc(C2O[C@H]3C=C[C@H](C)[C@@H](/C(C)=C/I)OC(=O)C[C@H](O[Si](C)(C)C(C)(C)C)CC[C@@]3(C)O2)cc1` (stereo partly shown), which ring closure, yield of all isomers is on record?
A: The ring closure, yield of all isomers was 50%.
